Measurements published in US12077503B2, “Substituted cyclic amides and their use as herbicides” (FMC CORPORATION, priority 2015, dated 2024).

What was measured:
Type in all cases: in vivo
Kochia (Kochia scoparia) [1] = assay: Test A preemergence; conditions: Bassia scoparia, pre-emergence, 240 h, 0 to 100 scale where 0 is no effect and 100 is complete control, read-out: Kochia plant response rating; for pest or weed control at 31 g/ha: 31 g ai/ha, Preemergence; for pest or weed control at 125 g/ha: 125 g ai/ha, preemergence
Method in brief: (§1)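 Greenhouse, ~10 d after spray; visual injury vs untreated controls, 0 = no effect, 100 = complete control. Preemergence: directed soil spray over planted seeds. Postemergence: plants 2–10 cm, 1–2 leaf stage. Loam/sand blend. Compound in non-phytotoxic solvent with surfactant.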

[2] = tested on: barnyardgrass (Echinochloa crus-galli); assay: Test A preemergence; conditions: Echinochloa crus-galli, pre-emergence, 240 h, 0 to 100 scale where 0 is no effect and 100 is complete control, read-out: Barnyardgrass plant response rating; for pest or weed control at 31 g/ha: 31 g ai/ha, Preemergence; for pest or weed control at 125 g/ha: 125 g ai/ha, preemergence
Method in brief: as §1

[3] = tested on: giant foxtail (Setaria faberii); assay: Test A preemergence; conditions: Setaria faberi, pre-emergence, 240 h, 0 to 100 scale where 0 is no effect and 100 is complete control, read-out: Foxtail, Giant plant response rating; for pest or weed control at 31 g/ha: 31 g ai/ha, Preemergence; for pest or weed control at 125 g/ha: 125 g ai/ha, preemergence
Method in brief: as §1

[4] = tested on: pigweed (Amaranthus retroflexus); assay: Test A preemergence; conditions: Amaranthus retroflexus, pre-emergence, 240 h, 0 to 100 scale where 0 is no effect and 100 is complete control, read-out: Pigweed plant response rating; for pest or weed control at 31 g/ha: 31 g ai/ha, Preemergence; for pest or weed control at 125 g/ha: 125 g ai/ha, preemergence
[5] = tested on: ragweed (common ragweed, Ambrosia elatior); assay: Test A preemergence; conditions: Ambrosia artemisiifolia, pre-emergence, 240 h, 0 to 100 scale where 0 is no effect and 100 is complete control, read-out: Ragweed plant response rating; for pest or weed control at 31 g/ha: 31 g ai/ha, Preemergence; for pest or weed control at 125 g/ha: 125 g ai/ha, preemergence
Method in brief: as §1

[6] = tested on: ryegrass, Italian (Italian ryegrass, Lolium multiflorum); assay: Test A preemergence; conditions: Lolium multiflorum, pre-emergence, 240 h, 0 to 100 scale where 0 is no effect and 100 is complete control, read-out: Ryegrass, Italian plant response rating; for pest or weed control at 31 g/ha: 31 g ai/ha, Preemergence; for pest or weed control at 125 g/ha: 125 g ai/ha, preemergence
Method in brief: as §1

[7] = tested on: Galium (catchweed bedstraw, Galium aparine); assay: Test A postemergence; conditions: Galium, post-emergence, 240 h; for pest or weed control at 125 g/ha: 125 g ai/ha, postemergence, visual injury vs untreated controls after approx. 10 d, 0 = no effect, 100 = complete control, read-out: Galium plant response rating (0 to 100 scale); for pest or weed control at 31 g/ha: Postemergence, 31 g ai/ha, visual injury after approx. 10 d, 0 to 100 scale, 0 no effect, 100 complete control, read-out: Plant response rating, Galium
Method in brief: as §1

Kochia (Kochia scoparia) [8] = assay: Test A postemergence; conditions: Bassia scoparia, post-emergence, 240 h; for pest or weed control at 125 g/ha: 125 g ai/ha, postemergence, visual injury vs untreated controls after approx. 10 d, 0 = no effect, 100 = complete control, read-out: Kochia plant response rating (0 to 100 scale); for pest or weed control at 31 g/ha: Postemergence, 31 g ai/ha, visual injury after approx. 10 d, 0 to 100 scale, 0 no effect, 100 complete control, read-out: Plant response rating, Kochia
Method in brief: as §1

[9] = tested on: barnyardgrass (Echinochloa crus-galli); assay: Test A postemergence; conditions: Echinochloa crus-galli, post-emergence, 240 h; for pest or weed control at 125 g/ha: 125 g ai/ha, postemergence, visual injury vs untreated controls after approx. 10 d, 0 = no effect, 100 = complete control, read-out: Barnyardgrass plant response rating (0 to 100 scale); for pest or weed control at 31 g/ha: Postemergence, 31 g ai/ha, visual injury after approx. 10 d, 0 to 100 scale, 0 no effect, 100 complete control, read-out: Plant response rating, Barnyardgrass
Method in brief: as §1

[10] = tested on: blackgrass (Alopecurus myosuroides); assay: Test A postemergence; conditions: Alopecurus myosuroides, post-emergence, 240 h; for pest or weed control at 125 g/ha: 125 g ai/ha, postemergence, visual injury vs untreated controls after approx. 10 d, 0 = no effect, 100 = complete control, read-out: Blackgrass plant response rating (0 to 100 scale); for pest or weed control at 31 g/ha: Postemergence, 31 g ai/ha, visual injury after approx. 10 d, 0 to 100 scale, 0 no effect, 100 complete control, read-out: Plant response rating, Blackgrass
Method in brief: as §1

corn (Zea mays) = assay: Test A postemergence; conditions: Zea mays, post-emergence, 240 h; for plant injury at 125 g/ha: 125 g ai/ha, postemergence, visual injury vs untreated controls after approx. 10 d, 0 = no effect, 100 = complete control, read-out: Corn plant response rating (0 to 100 scale); for Corn plant response rating (crop injury, 0 = no effect, 100 = complete kill) at 31 g/ha: Postemergence, 31 g ai/ha, visual injury after approx. 10 d, 0 to 100 scale, 100 complete control
Method in brief: as §1

[11] = tested on: giant foxtail (Setaria faberii); assay: Test A postemergence; conditions: Setaria faberi, post-emergence, 240 h; for pest or weed control at 125 g/ha: 125 g ai/ha, postemergence, visual injury vs untreated controls after approx. 10 d, 0 = no effect, 100 = complete control, read-out: Foxtail, Giant plant response rating (0 to 100 scale); for pest or weed control at 31 g/ha: Postemergence, 31 g ai/ha, visual injury after approx. 10 d, 0 to 100 scale, 0 no effect, 100 complete control, read-out: Plant response rating, Foxtail, Giant
Method in brief: as §1

[12] = tested on: pigweed (Amaranthus retroflexus); assay: Test A postemergence; conditions: Amaranthus retroflexus, post-emergence, 240 h, 125 g ai/ha, postemergence, visual injury vs untreated controls after approx. 10 d; 0 = no effect, 100 = complete control; read-out: Pigweed plant response rating (0 to 100 scale)
Method in brief: as §1

[13] = tested on: ragweed (common ragweed, Ambrosia elatior); assay: Test A postemergence; conditions: Ambrosia artemisiifolia, post-emergence, 240 h, 125 g ai/ha, postemergence, visual injury vs untreated controls after approx. 10 d; 0 = no effect, 100 = complete control; read-out: Ragweed plant response rating (0 to 100 scale)
Method in brief: as §1

[14] = tested on: ryegrass, Italian (Italian ryegrass, Lolium multiflorum); assay: Test A postemergence; conditions: Lolium multiflorum, post-emergence, 240 h, 125 g ai/ha, postemergence, visual injury vs untreated controls after approx. 10 d; 0 = no effect, 100 = complete control; read-out: Ryegrass, Italian plant response rating (0 to 100 scale)
Method in brief: as §1

[15] = tested on: wheat (Triticum aestivum); assay: Test A postemergence; conditions: Triticum aestivum, post-emergence, 240 h, 125 g ai/ha, postemergence, visual injury vs untreated controls after approx. 10 d; 0 = no effect, 100 = complete control; read-out: Wheat plant response rating (0 to 100 scale)
Method in brief: as §1

[16] = tested on: barnyardgrass (Echinochloa crus-galli); assay: Test B flooded paddy test; conditions: Echinochloa crus-galli, 250 g ai/ha, Flood; 0 to 100 scale where 0 is no effect and 100 is complete control; read-out: Barnyardgrass plant response rating
Method in brief: (§2)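 Plants at 2-leaf stage flooded to 3 cm above soil, with compounds applied directly to paddy water and that depth maintained. Plants kept in greenhouse 13–15 d. Visual rating versus controls on a 0 (no effect) to 100 (complete control) scale.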

[17] = tested on: ducksalad (Heteranthera limosa); assay: Test B flooded paddy test; conditions: Heteranthera limosa, 250 g ai/ha, Flood; 0 to 100 scale where 0 is no effect and 100 is complete control; read-out: Ducksalad plant response rating
Method in brief: as §2

rice (Oryra sativa) = assay: Test B flooded paddy test; conditions: Oryza sativa, 250 g ai/ha, Flood; 0 to 100 scale where 0 is no effect and 100 is complete control; read-out: Rice plant response rating
Method in brief: as §2

[18] = tested on: sedge, umbrella (small-flower umbrella sedge, Cyperus difformis); assay: Test B flooded paddy test; conditions: Cyperus difformis, 250 g ai/ha, Flood; 0 to 100 scale where 0 is no effect and 100 is complete control; read-out: Sedge, Umbrella plant response rating
Method in brief: as §2

[19] = visual injury rating, approximately 10 d

| SMILES | pest or weed control at 31 g/ha (Kochia (Kochia scoparia) [1]) [%] | pest or weed control at 31 g/ha [2] [%] | pest or weed control at 31 g/ha [3] [%] | pest or weed control at 31 g/ha [4] [%] | pest or weed control at 31 g/ha [5] [%] | pest or weed control at 31 g/ha [6] [%] | pest or weed control at 125 g/ha [7] [%] | pest or weed control at 31 g/ha [7] [%] | pest or weed control at 125 g/ha (Kochia (Kochia scoparia) [8]) [%] | pest or weed control at 31 g/ha (Kochia (Kochia scoparia) [8]) [%] | pest or weed control at 125 g/ha [9] [%] | pest or weed control at 31 g/ha [9] [%] | pest or weed control at 125 g/ha [10] [%] | pest or weed control at 31 g/ha [10] [%] | plant injury at 125 g/ha (corn (Zea mays)) [%] | Corn plant response rating (crop injury, 0 = no effect, 100 = complete kill) at 31 g/ha (corn (Zea mays)) [%] | pest or weed control at 125 g/ha [11] [%] | pest or weed control at 31 g/ha [11] [%] | pest or weed control at 125 g/ha [12] [%] | pest or weed control at 125 g/ha [13] [%] | also measured |
| --- | --- | --- | --- | --- | --- | --- | --- | --- | --- | --- | --- | --- | --- | --- | --- | --- | --- | --- | --- | --- | --- |
| CN1C[C@H](c2cc(F)cc(C(F)(F)F)c2)[C@@H](C(=O)Nc2cccnc2F)C1=O [Compound 1176] | 0 | 90 | 90 | 0 | 0 | 40 | 50 | 30 | 40 | 0 | 90 | 80 | 70 | 50 | 90 | 50 | 80 | 80 | 0 | 30 | pest or weed control at 125 g/ha (Kochia (Kochia scoparia) [1]; approx. 10 d): 40%; pest or weed control at 125 g/ha ([2]; approx. 10 d): 90%; pest or weed control at 125 g/ha ([3]; approx. 10 d): 90%; pest or weed control at 125 g/ha ([4]; approx. 10 d): 40%; pest or weed control at 125 g/ha ([5]; approx. 10 d): 0%; pest or weed control at 125 g/ha ([6]; approx. 10 d): 50%; pest or weed control at 125 g/ha [14]: 30%; plant injury at 125 g/ha [15]: 90%; pest or weed control at 250 g/ha [16]: 95%; pest or weed control at 250 g/ha [17]: 95%; pest or weed control at 250 g/ha (rice (Oryra sativa)): 0%; pest or weed control at 250 g/ha [18]: 0% |
| COc1ccc(C(F)(F)F)cc1[C@H]1CN(C)C(=O)[C@@H]1C(=O)Nc1ccccc1F [Compound 1183] | 0 | 90 | 80 | 0 | 0 | 20 | 0 | 0 | 0 | 0 | 90 | 80 | 50 | 0 | 60 | 30 | 80 | 70 | 0 | 0 | pest or weed control at 125 g/ha (Kochia (Kochia scoparia) [1]; [19]): 0%; pest or weed control at 125 g/ha [2, 19]: 90%; pest or weed control at 125 g/ha [3, 19]: 90%; pest or weed control at 125 g/ha [4, 19]: 0%; pest or weed control at 125 g/ha [5, 19]: 0%; pest or weed control at 125 g/ha [6, 19]: 50%; pest or weed control at 125 g/ha [14]: 50%; plant injury at 125 g/ha [15]: 50%; pest or weed control at 250 g/ha [16]: 95%; pest or weed control at 250 g/ha [17]: 95%; pest or weed control at 250 g/ha (rice (Oryra sativa)): 10%; pest or weed control at 250 g/ha [18]: 0% |
